Measured values taken from ChEMBL document CHEMBL5223080, “Discovery of Pyrrole-imidazole Polyamides as PD-L1 Expression Inhibitors and Their Anticancer Activity via Immune and Nonimmune Pathways” (J Med Chem, 2021).
Each block holds one molecule with its values, some of them ahead of it. Calls of active or inactive are those of the source. The calls are words filed in the database; no cut-off is given here.

Legend:
MRC5 = experiment: Cytotoxicity against human MRC5 cells at 32 uM by standard CCK-8 assay; format: toxicity, cell-based; details: mrc5, 32 µM
DNA [1] = experiment: Binding affinity to wild type double stranded DNA (unknown origin) incubated for 24 hrs by Circular Dichroism assay; format: nucleic-acid assay
HCC827 [2] = experiment: Inhibition of PD-L1 protein expression in IFNgamma-induced human HCC827 cells measured for 36 hrs by Western blot analysis; format: functional, cell-based; details: dose 1.25-10 µM
HCC827 [3] = experiment: Cytotoxicity against human HCC827 cells incubated for 36 hrs by standard CCK-8 assay; format: functional, cell-based; details: for IC50: HCC827, 36 h
dsDNA [4] = experiment: Binding affinity to human mutant double stranded DNA assessed as thermal stability of compound-DNA complex by measuring melting change in temperature at stoichiometry ratio 1:4 by UV melting assay; format: nucleic-acid assay
dsDNA [5] = experiment: Binding affinity to human wild-type double stranded DNA assessed as thermal stability of compound-DNA complex by measuring change in melting temperature at stoichiometry ratio 1:4 by UV melting assay; format: nucleic-acid assay
[6] = Induction of T-cell mediated cell killing in human MDA-MB-231 cells co-cultured with PMA-activated Jurkat T cells assessed as IL-2 production at 8 uM by ELISA relative to control; format: functional
HCC827 [7] = experiment: Antimigratory activity in human HCC827 cells assessed as inhibition rate at 2 uM measured after 48 hrs by Wound healing assay relative to control; format: functional; design: scale not given: the % may be the effect or the level left
HCC827 [8] = experiment: Antimigratory activity in human HCC827 cells assessed as inhibition rate at 0.5 to 1 uM measured after 48 hrs by Wound healing assay relative to control; format: functional; design: scale not given: the % may be the effect or the level left; details: dose 0.5-1 µM
HCC827 [9] = experiment: Inhibition of PD-L1 mRNA expression in IFNgamma-induced human HCC827 cells measured for 36 hrs by qRT-PCR analysis; format: functional, cell-based; details: dose 1.25-10 µM
MDA-MB-231 [10] = experiment: Inhibition of PD-L1 protein expression in IFNgamma-induced human MDA-MB-231 cells measured for 36 hrs by Western blot analysis; format: functional, cell-based; details: dose 1.25-10 µM
MDA-MB-231 [11] = experiment: Antimigratory activity in human MDA-MB-231 cells assessed as inhibition rate at 2 uM measured after 48 hrs by Wound healing assay relative to control; format: functional; design: scale not given: the % may be the effect or the level left
[12] = Induction of T-cell mediated cytotoxicity against human MDA-MB-231 cells co-cultured with Jurkat cells assessed as apoptotic cells at 8 uM incubated for 36 hrs by standard CCK-8 assay relative to control; format: functional
HCC827 [13] = experiment: Induction of apoptosis in human HCC827 cells co-cultured with human Jurkat T cells at 8 uM relative to control; format: functional
MDA-MB-231 [14] = experiment: Antitumour activity against human MDA-MB-231 cells assessed as measuring interleukin-2 levels by ELISA; format: functional
dsDNA [15] = experiment: Binding affinity to human 5'-biotin-double stranded DNA assessed as dissociation rate constant by surface plasmon resonance; format: nucleic-acid assay
MDA-MB-231 [16] = experiment: Inhibition of PD-L1 mRNA expression in IFNgamma-induced human MDA-MB-231 cells measured for 36 hrs by qRT-PCR analysis; format: functional, cell-based; details: dose 1.25-10 µM
[17] = Induction of T-cell mediated cytotoxicity against human HCC827 cells co-cultured with Jurkat cells assessed as apoptotic cells at 8 uM incubated for 36 hrs by standard CCK-8 assay relative to control; format: functional
dsDNA [18] = experiment: Binding affinity to human wild-type double stranded DNA assessed as thermal stability of compound-DNA complex by measuring change in melting temperature at stoichiometry ratio 1:0.5 by UV melting assay; format: nucleic-acid assay
[19] = Induction of T-cell mediated cell killing in human HCC827 cells co-cultured with PMA-activated Jurkat T cells assessed as IL-2 production at 8 uM by ELISA relative to control; format: functional
DNA [20] = experiment: Binding affinity to wild type double stranded DNA (unknown origin) at 1:1 compound to DNA ratio incubated for 24 hrs at 340 nm by Circular Dichroism assay; format: nucleic-acid assay
DNA [21] = experiment: Binding affinity to 5'-biotin-double stranded DNA (unknown origin) assessed as interaction with DNA to achieve steady state at 20 nM; format: nucleic-acid assay
dsDNA [22] = experiment: Binding affinity to human mutant double stranded DNA assessed as thermal stability of compound-DNA complex by measuring melting temperature change in at stoichiometry ratio 1:0.5 by UV melting assay; format: nucleic-acid assay
MDA-MB-231 [23] = experiment: Induction of apoptosis in human MDA-MB-231 cells co-cultured with human Jurkat T cells at 8 uM relative to control; format: functional
MDA-MB-231 [24] = experiment: Cytotoxicity against human MDA-MB-231 cells incubated for 36 hrs by standard CCK-8 assay; format: functional, cell-based; details: for IC50: MDA-MB-231, 36 h
Homo sapiens = organism: Homo sapiens; experiment: Binding affinity to 5'-biotin-double stranded DNA (unknown origin) assessed as saturation of the compound-DNA complex at 350 to 500 nM by surface plasmon resonance; details: dose 350-500 nM
dsDNA [25] = experiment: Binding affinity to human wild-type double stranded DNA assessed as thermal stability of compound-DNA complex by measuring change in melting temperature at stoichiometry ratio 1:1 by UV melting assay; format: nucleic-acid assay
dsDNA [26] = experiment: Binding affinity to human mutant double stranded DNA assessed as thermal stability of compound-DNA complex by measuring change in melting temperature at stoichiometry ratio 1:1 by UV melting assay; format: nucleic-acid assay
dsDNA [27] = experiment: Binding affinity to human 5'-biotin-double stranded DNA assessed as dissociation equilibrium constant by surface plasmon resonance; format: nucleic-acid assay
DNA [28] = experiment: Binding affinity to wild type 28 nucleotide double stranded DNA (unknown origin) in PD-L1 gene promotor region at 1:1 compound to DNA ratio incubated for 24 hrs by Circular Dichroism assay; format: nucleic-acid assay
HCC827 [29] = experiment: Antitumour activity against human HCC827 cells assessed as measuring interleukin-2 levels by ELISA; format: functional
MDA-MB-231 [30] = experiment: Antimigratory activity in human MDA-MB-231 cells assessed as inhibition rate at 0.5 to 1 uM measured after 48 hrs by Wound healing assay relative to control; format: functional; design: scale not given: the % may be the effect or the level left; details: dose 0.5-1 µM
Jurkat = experiment: Cytotoxicity against human Jurkat cells at 8 uM incubated for 36 hrs by standard CCK-8 assay; format: toxicity, cell-based
[31] = Binding affinity to human single stranded DNA (unknown origin) by electrophoretic mobility shift assay
DNA [32] = experiment: Binding affinity to wild-type double stranded DNA (unknown origin) by assessed as decrease in compound-DNA complex at >=8 uM by competitive electrophoretic mobility shift assay; format: nucleic-acid assay
dsDNA [33] = experiment: Binding affinity to human 5'-biotin-double stranded DNA assessed as association rate constant by surface plasmon resonance; format: nucleic-acid assay
[34] = Binding affinity to DNA STAT3 binding site of PD-L1 promoter region (unknown origin) assessed as disappearance of band of wild-type double stranded DNA-STAT3 protein complex at > 8 uM by competitive electrophoretic mobility shift assay

Activity (DNA [1]): Active | ΔTm (dsDNA [4]): 0.6 °C | ΔTm (dsDNA [5]): 8.6 °C | Kd (dsDNA [15]): 1.06 10^-2/s | ΔTm (dsDNA [18]): 2.7 °C | Activity (DNA [20]): Active | Activity (DNA [21]): Active | ΔTm (dsDNA [22]): 0.2 °C | Activity (Homo sapiens): Active | ΔTm (dsDNA [25]): 8.2 °C | ΔTm (dsDNA [26]): 0.3 °C | Kd (dsDNA [27]): 0.00828 µM | Activity (DNA [28]): Active | Activity [31]: inactive | Activity (DNA [32]): Active | Ka (dsDNA [33]): 1.28 10^6/M/s | Activity [34]: Active
Compound: CC(=O)Nc1cc(C(=O)Nc2cc(C(=O)Nc3cc(C(=O)Nc4cn(C)c(C(=O)Nc5cn(C)c(C(=O)NCCC(=O)Nc6cn(C)c(C(=O)Nc7cc(C(=O)Nc8cc(C(=O)NCCCC(=O)Nc9cc(C(=O)Nc%10cc(C(=O)Nc%11cc(C(=O)NCCC(=O)Nc%12cc(C(=O)Nc%13cc(C(=O)Nc%14cn(C)c(C(=O)Nc%15cc(C(=O)Nc%16cc(C(=O)NCCC(=O)NCCCN(C)C)n(C)c%16)n(C)c%15)n%14)n(C)c%13)n(C)c%12)n(C)c%11)n(C)c%10)n(C)c9)n(C)c8)n(C)c7)n6)n5)n4)n(C)c3)n(C)c2)n(C)c1.Cl
Activity (MRC5): Non-Toxic | inhibition (HCC827 [2]): Dose-Dependent Effect | IC50 (HCC827 [3]): 23.2 µM | Activity (HCC827 [3]; dose 2-32 µM): Dose-Dependent Effect | Activity [6]: 33% | Activity (HCC827 [7]): >70% | Activity (HCC827 [8]): 50% | inhibition (HCC827 [9]): Dose-Dependent Effect | inhibition (MDA-MB-231 [10]): Dose-Dependent Effect | Activity (MDA-MB-231 [11]): >70% | Activity [12]: 50.73% | Activity (HCC827 [13]): 23.4% | Activity (MDA-MB-231 [14]): 48.06 pg/mL | inhibition (MDA-MB-231 [16]): Dose-Dependent Effect | Activity [17]: 48% | Activity [19]: 31.41% | Activity (MDA-MB-231 [23]): 27.76% | IC50 (MDA-MB-231 [24]): 21.7 µM | Activity (MDA-MB-231 [24]; dose 2-32 µM): Dose-Dependent Effect | Activity (HCC827 [29]): 28.2 pg/mL | Activity (MDA-MB-231 [30]): 50% | Activity (Jurkat): Non-Toxic

Compound: COc1nc(OCc2cccc(-c3ccccc3)c2C)ccc1CNCCNC(C)=O
IC50 (HCC827 [3]): 8.41 µM | Activity [12]: 87.58% | Activity [17]: 70.87% | IC50 (MDA-MB-231 [24]): 7.92 µM
